From patent US7772241B2, “Variolin derivatives and their use as antitumor agents” (Pharma Mar S.A., priority 2001, dated 2010)

What was measured:
Settings in all cases: SRB assay, 48 hours exposure
LNCaP = assay: Inhibition of cells growth by colorimetric (SRB) assay, LNCaP
In short: (§1)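 Human tumour cells seeded at 5×10^3/well in RPMI 1640 10% FBS, attached 18 h, then exposed 48 h to samples at 10 to 10^−8 μg/ml in DMSO/EtOH/PBS (0.5:0.5:99). Growth read by SRB staining after TCA fixation, OD 490 nm, triplicate wells; GI, TGI and LC derived.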

PANC-1 = assay: Inhibition of cells growth by colorimetric (SRB) assay, PANC-1
In short: as §1

SK-OV-3 = assay: Inhibition of cells growth by colorimetric (SRB) assay, SK-OV-3
In short: as §1

LoVo-Dox = assay: Inhibition of cells growth by colorimetric (SRB) assay, LoVo-Dox
In short: as §1

IGROV-ET = assay: Inhibition of cells growth by colorimetric (SRB) assay, IGROV-ET
In short: as §1

DU-145 = assay: Inhibition of cells growth by colorimetric (SRB) assay, DU-145
In short: as §1

K-562 = assay: Inhibition of cells growth by colorimetric (SRB) assay, K-562
In short: as §1

IGROV-1 = assay: Inhibition of cells growth by colorimetric (SRB) assay, IGROV-1
In short: as §1

HMEC1 = assay: Inhibition of cells growth by colorimetric (SRB) assay, HMEC1
Excerpt: The finality of these assays is to interrupt the growth of a “in vitro” tumor cell culture by means a continued exhibition of the cells to the sample to be testing.
This form of the assay employs 96 well cell culture microplates of 9 mm diameter (Faircloth, 1988; Mosmann, 1983). Most of the cell lines are obtained from American Type Culture Collection (ATCC) derived from different human cancer types.
Cells are maintained in RPMI 1640 10% FBS, supplemented with 0.1 g/l penicillin and 0.1 g/l streptomycin sulphate and then incubated at 37° C., 5% CO2 and 98% humidity. For the experiments, cells were harvested from subconfluent cultures using trypsin and resuspended in fresh medium before plating.
Cells are seeded in 96 well microtiter plates, at 5×10^3 cells per well in aliquots of 195 μl medium, and they are allowed to attach to the plate surface by growing in drug free medium for 18 hours. Afterward, samples are added in aliquots of 5 μl in a ranging from 10 to 10^−8 μg/ml, dissolved in DMSO/EtOH/PBS (0.5:0.5:99). After 48 hours exposure, the antitumor effect are measured by the SRB methodology: cells are fixed by adding 50 μl of cold 50% (wt/vol) trichloroacetic acid (TCA) and incubating for 60 minutes at 4° C. Plates are washed with deionized water and dried. One hundred μl of SRB solution (0.4% wt/vol in 1% acetic acid) is added to each microtiter well and incubated for 10 minutes at room temperature. Unbound SRB is removed by washing with 1% acetic acid. Plates are air dried and bound stain is solubilized with Tris buffer. Optical densities are read on a automated spectrophotometric plate reader at a single wavelength of 490 nm.
The values for mean +/−SD of data from triplicate wells are calculated. Some parameters for cellular responses can be calculated: GI=growth inhibition, TGI=total growth inhibition (cytostatic effect) and LC=cell killing (cytotoxic effect).

LoVo = assay: Inhibition of cells growth by colorimetric (SRB) assay, LoVo
In short: as §1

SK-BR-3 = assay: Inhibition of cells growth by colorimetric (SRB) assay, SK-BR-3
In short: as §1

HT-29 = assay: Inhibition of cells growth by colorimetric (SRB) assay, HT-29
In short: as §1

SK-MEL-28 = assay: Inhibition of cells growth by colorimetric (SRB) assay, SK-MEL-28
In short: as §1

A-549 = assay: Inhibition of cells growth by colorimetric (SRB) assay, A-549
In short: as §1

Nc1nccc(-c2c3cc4ccccc4nc3n3c(N)nccc23)n1 [Compound 19a]
TGI LN-caP (LNCaP): 2.18E−06
GI50 (LNCaP; read-out: GI50 LN-caP): 736 nM
CC50 (LNCaP; read-out: LC50 LN-caP): 22500 nM
TGI PANC-1 (PANC-1): 1.41E−05
GI50 (PANC-1; read-out: GI50 PANC-1): 3450 nM
TGI SKOV-3 (SK-OV-3): 4.67E−06
GI50 (SK-OV-3; read-out: GI50 SKOV-3): 1140 nM
CC50 (SK-OV-3; read-out: LC50 SKOV-3): 21800 nM
TGI LOVO-DOX (LoVo-Dox): 7.51E−06
GI50 (LoVo-Dox; read-out: GI50 LOVO-DOX): 1030 nM
TGI IGROV-ET (IGROV-ET): 4.98E−06
GI50 (IGROV-ET; read-out: GI50 IGROV-ET): 1410 nM
CC50 (IGROV-ET; read-out: LC50 IGROV-ET): 14500 nM
TGI DU-145 (DU-145): 7.94E−07
GI50 (DU-145; read-out: GI50 DU-145): 3.05 nM
CC50 (DU-145; read-out: LC50 DU-145): 3790 nM
TGI K-562 (K-562): 6.42E−06
GI50 (K-562; read-out: GI50 K-562): 1780 nM
CC50 (K-562; read-out: LC50 K-562): 25000 nM
TGI IGROV (IGROV-1): 9.56E−06
GI50 (IGROV-1; read-out: GI50 IGROV): 1850 nM
TGI H-MEC-1 (HMEC1; in M (unit assumed)): 6.72E−07
GI50 (HMEC1; read-out: GI50 H-MEC-1): 123 nM
CC50 (HMEC1; read-out: LC50 H-MEC-1): 3820 nM
TGI LOVO (LoVo): 2.74E−06
GI50 (LoVo; read-out: GI50 LOVO): 467 nM
CC50 (LoVo; read-out: LC50 LOVO): 11100 nM
TGI SK-BR-3 (SK-BR-3): 1.68E−06
GI50 (SK-BR-3; read-out: GI50 SK-BR-3): 477 nM
CC50 (SK-BR-3; read-out: LC50 SK-BR-3): 8580 nM
TGI HT-29 (HT-29): 3.05E−05
GI50 (HT-29; read-out: GI50 HT-29): 1940 nM
TGI MEL-28 (SK-MEL-28): 5.16E−06
GI50 (SK-MEL-28; read-out: GI50 MEL-28): 1460 nM
CC50 (SK-MEL-28; read-out: LC50 MEL-28): 13100 nM
TGI A-549 (A-549): 7.64E−06
GI50 (A-549; read-out: GI50 A-549): 3240 nM
CC50 (A-549; read-out: LC50 A-549): 18000 nM
